In patent US6682897B1, “Peptides derived from human heat protein 60 for treatment of diabetes, compositions, methods and kits” (Yeda Research and Development Co. Ltd., priority 1995, dated 2004):
Marks after values point to notes of the source that are not given here. Where no end group is shown, it is not given here.

Legend:
[1] = test system: peripheral blood T-cells; assay: Peripheral blood T-cell proliferation of IDDM patients and healthy controls to hsp60 and hsp60 synthetic peptides (Example 5); format: cell-based, human; conditions: 26 newly diagnosed IDDM patients; peptides 20 μg/ml, 7 days
[2] = test system: female NOD mice; assay: Peptide treatment of 10-week old NOD mice, development of diabetes (Example 4, FIG. 4); format: in vivo; conditions: single s.c. injection in IFA at 10 weeks, observed through 8 months of age, vs IFA alone
Procedure: FIG. 4 is a graph showing the effect of peptide administration on diabetes. Groups of 10-20 NOD mice were treated at 10 weeks of age with 100 μg of mouse p12, p277, p35-GAD or MT-p278 in IFA, or IFA alone. The mice were bled monthly and followed for the onset of hyperglycemia.
(§1) (iv) Treatment and follow-up. Peptides, […], in PBS, were emulsified with an equal volume of IFA and injected subcutaneously into 10-week-old NOD females as described (Elias and Cohen, 1995). Control mice received an equal volume of PBS emulsified in IFA. The mice were monitored monthly for non-fasting blood glucose at 10am using the Blood Glucose Sensor (MediSense. Inc., Waltham, Mass.). Mice with a blood glucose greater than 11.1 mmol/L were considered to be diabetic; this concentration of glucose was greater than 3 standard deviations above the mean blood glucose concentration measured in non-diabetic mice (Elias and Cohen, 1995). Histological examination of the islets of the pancreas was done on sections stained with hematoxylin and eosin. The sections were scored independently by two observers who both were unaware of the identity of the groups. The chi square test was used to ascertain the statistical differences between the various treatments.
Following a protocol shown to be effective with mouse p277(Elias et al., 1991; Elias and Cohen, 1994; Elias and Cohen, 1995), groups of 10-week old female NOD mice were treatedby a single subcutaneous injection of each peptide ([…]) emulsified in IFA.

[3] = test system: NOD mice; conditions: s.c. in IFA; young NOD mice or 12-17 week old NOD mice with advanced insulitis; cited from earlier work
[4] = test system: C57BL/KsJ mice; conditions: mice that had received earlier a very low dose of STZ; cited from earlier work
[5] = test system: draining popliteal lymph node lymphocytes; assay: T-cell proliferation of draining lymph node cells of NOD mice immunized with hsp60 peptides in CFA (Example 1, FIG. 2); format: cell-based; conditions: NOD mice immunized with peptide emulsified in CFA in hind foot pads, assayed after 10 days
Procedure: (§2) (iii) T-Cell proliferation to peptides. Mice. Nine week old NOD mice or mice of other strains were immunized in the hind foot pads with 0.1 ml of an emulsion containing 25 μg peptide in complete Freund's adjuvant (CFA; Difco, Detroit, Mich.) mixed with an equal volume of phosphate-buffered saline (PBS). The draining popliteal lymph nodes were removed 10 days later and suspensions of lymphocytes in triplicate cultures were tested for proliferation in the presence of the various peptides (5 μg/ml) using the incorporation of [^3H]-thymidine as described (Elias et al., 1991).
The immunogenicity of the hsp60 peptides p12, p32, p277(Val^6-Val^11) and p278 in NOD mice was tested by immunizing the mice with the peptides emulsified in CFA in the hind foot pads, and assaying the proliferative responses of draining lymph node cells after 10 days as described above in section iii(a).

[6] = test system: NOD/Lt female mice; assay: Treatment of NOD mice with peptides in IFA: diabetes and mortality (Example 2); format: in vivo; conditions: 100 μg peptide in IFA s.c., nine-week old NOD/Lt females; for Diabetes (%): persistent blood glucose over 11.1 mmol/l at 25 weeks of age
Procedure: as §1, with “Mice with a blood glucose greater than 11.1 mmol/L were considered to be diabetic; this concentration of glucose was greater than 3 standard deviations above the mean blood glucose concentration measured in non-diabetic mice (Elias and Cohen, 1995).” left out
To test whether the p12 and p32 peptides can block the progression of diabetes as p277(Val^6-Val^11), the p277(Val6-Val^11), p12 or p32 peptides (100 μg in a 0.1 cc emulsion of IFA) were administered subcutaneously to groups of 10-12 nine-week old NOD/Lt female mice of the Jackson Laboratory, Bar-Harbor, Me. Diabetes, determined as persistent blood glucose levels over 11.1 mmol/l, was tested at 25 weeks of age. Control mice were untreated or were treated with p278.

[7] = test system: Peripheral mononuclear cells (PBMC) of IDDM patients; assay: T-cell proliferative response of PBMC from newly diagnosed IDDM patients (Example 3); format: cell-based, human; conditions: antigen 10 μg/ml, 6 days, SI more than 2.0 positive
Procedure: To determine the T-cell responses to the various hsp60 peptides, lymphocytes from the peripheral blood of newly diagnosed (2 weeks-4 months) IDDM patients were tested in a proliferation assay. 10-20 ml of blood were removed into a sterile tube containing heparin as anti-coagulant and diluted in PBS 1:2. Peripheral mononuclear cells (PBMC) were isolated by centrifuging the blood over a lymphoprep layer. The PBMC were tested for proliferation in triplicates, in the presence of the various antigens (10 μg/ml) for 6 days using the incorporation of [^3H]-thymidine as a measure of proliferation. The antigens tested were human hsp60 or the hsp60 peptides p277(Val^6-Val^11), p12, p32 and control peptide p278. The T cell proliferative response is depicted as stimulation index (SI): The ratio between peptide-stimulated thymidine incorporation and background (no antigen added) thymidine incorporation by the T cells.

[8] = Cross-reactivity with native peptide by T-cell and antibody assays
From the text: (ii) Antigens. […] Whenever unspecified, the human sequence is intended.

[9] = compared with p277; cited from earlier work
[10] = test system: draining lymph nodes; assay: T-cell proliferative responses of NOD mice to peptides (Example 4, FIG. 3); format: cell-based; conditions: NOD mice immunized with 25 μg peptide in IFA, lymph nodes 10 days later, 20 μg/ml
Procedure: FIG. 3 is a graph showing T-cell proliferative responses of NOD mice to peptides. Groups of three NOD mice were […] with peptides mouse p12, mouse p277, GAD-p35 and MT-p278 in IFA each at a dose of 25 μg in IFA. The draining lymph nodes were removed 10 days later and assayed for proliferative responses to the corresponding peptide at the concentrations of 5, 10, 20, and 50 μg/ml. The stimulation at the optimal concentration of 20 μg/ml is shown. The following ranges of cpm were obtained in medium controls: mouse p12, 881; mouse p277, 1243; MT-p278, 698 and GAD-p35 1430. Peptide mouse p38 is a peptide derived from mouse hsp60 (556-573), which has no sequence homology with the tested peptides and serves as a negative control of specificity. […] Each assay was done in triplicates for which the SD values are indicated by the bars. There was no cross-reactivity between the peptides (not shown).
as §2, with “1991). The results are shown as the stimulation index (SI): the ratio of the mean cpm in the presence of the test peptide to the mean cpm of control cultures without the peptide. Standard errors were always less than 10% of the means.” for “1991).”
Spontaneous T cell responses in pre-diabetic NOD mice were detected to the mouse p277 peptide (Elias et al., 1991; Birk et al., 1996) and to larger fragments of the mouse hsp60 molecule that contained the mouse p277 sequence (Birk et al., 1996). […] Other peptides immunogenic for NOD mice are the MT-p278 peptide (residues 458-474 in the Mycobacterial hsp60 molecule), and GAD-p35 (residues 524-543 in the GAD65 molecule).

[11] = test system: spleens of female NOD mice; assay: Spontaneous T-cell responses in spleens of female NOD mice (longitudinal study); format: cell-based; conditions: female NOD mice at ages 3-16 weeks
[12] = test system: serum antibodies of the IgG1, IgG2a and IgG2b isotypes; assay: Serum anti-peptide antibody isotypes by ELISA in peptide-treated NOD mice (FIG. 5); format: in vivo; conditions: for antibody titers of the IgG1 and IgG2b isotypes: peptide-treated NOD mice, sera diluted 1:50, ELISA
Procedure: FIGS. 5A-5D show the IgG1, IgG2a and IgG2b antibody isotypes in response to peptide treatment. Mice were treated as described in the legend to FIG. 4. Individual samples were analyzed for antibodies to mouse p12 A; p277 B; GAD-p35 C; and MT-p278 D, of the IgG1, IgG2a and IgG2b isotypes. Similar effects were obtained in two experiments. The results are presented as the absorbance at 405 nm (OD) of 10 individual mice in each group. The level of significance of the prevalence of IgG1 and IgG2b antibodies in groups A and B compared to C and D is P<0.001. The differences between the levels of IgG1 and IgG2b antibodies compared to the IgG2a antibodies in groups A and B were significant (P<0.001). There was no cross-reactivity between the antibodies (not shown).
(v) Serum Antibodies. Mice were bled monthly to detect antibody responses. The ELISA assay was done as described (Elias et al., 1991). Briefly, flat bottom Maxi-sorb plates (Nunc, Roskilde, Denmark) were coated, for the detection of anti-peptide antibodies, with […] of peptide in PBS, at a concentration of […] for 2 h at room temperature followed by over night incubation at 4° C. After incubation with peptide, the plates were washed and blocked for 2 h at 37° C. with 7% BSA (Sigma) in PBS. Sera were diluted 1:50 then added for 2 h at 37° C., followed by incubation for 2 h with […] of goat anti-mouse IgG (gamma chain Fc specific) conjugated to alkaline phosphatase (Jackson, Philadelphia, Pa.). After washing, the plates were incubated with the substrate, diethanolamine (Sigma) and read using an ELISA reader at 405 nm.
Successful treatment of STZ-induced diabetes with mouse peptide p277 was associated with the appearance of anti-peptide antibodies predominantly of the IgG1 and IgG2b isotypes (Elias and Cohen, 1996). The peptide-treated NOD mice for their serum antibodies was therefore examined. […] Thus, effectiveness in inhibiting diabetes was associated with the induction of an antibody response mainly of the IgG1 and IgG2b isotypes.

For “LVIIAEDVDGEALSTLVLNR [p19, human hsp60 residues 271-290]”, the “T-cell proliferative response of IDDM patients (S.I. 2 or greater positive)” value [1] was “no IDDM patients responded”.
For “KAPGFGDNRKNQLKDMAIAT [p21, human hsp60 residues 301-320]”, the “T-cell proliferative response of IDDM patients (S.I. 2 or greater positive)” value [1] was “no IDDM patients responded”.
In the case of “VLGGGCALLRCIPALDSLTPANED (cysteine pairing not given here) [p277, human hsp60 residues 437-460]”, the development of diabetes [2] is listed as “significantly protected”, the disease progression [3] is listed as “arrest of disease progression” and the “development of autoimmune diabetes” value [4] is listed as “aborted the development of autoimmune diabetes”.
In the case of “VLGGGVALLRVIPALDSLTPANED [p277(Val^6-Val^11)]”, the “immunogenicity (proliferative responses of draining lymph node cells)” value [5] is reported as “strongly immunogenic”, the “Mortality (%)” value [6] is reported as 5* % and the “therapeutic effect in treatment of diabetes” value [6] is reported as “effective in treatment of diabetes”. For the same substance, the “Diabetes (%)” value [6] was 10%, the “Diabetes (%)” value ([6]; listed as p277 (Val^6 - Val^11)) was 10* % and the “T-cell proliferative response (SI)” value ([7]; Patient 1) was 4.5. The “T-cell proliferative response (SI)” value ([7]; Patient 2) was 5.0, the “T-cell proliferative response (SI)” value ([7]; Patient 3) was 5.6 and the “T-cell proliferative response (SI)” value ([7]; Patient 4) was 1.0. For the same substance, the “T-cell proliferative response (SI)” value ([7]; Patient 5) was 1.1, the “T-cell proliferative response (SI)” value ([7]; Patient 6) was 1.3 and the “T-cell proliferative response (SI)” value ([7]; Patient 7) was 3.9. The “T-cell proliferative response (SI)” value ([7]; Patient 8) was 1.2, the “cross-reactivity with the native peptide” value [8] was “completely cross-reactive” and the “activity in the treatment of diabetes” value [9] was “as active as p277”.
For EGDEATGANIVKVALEA [MT-p278], the “immunogenicity (T-cell proliferative response)” value [10] was “as strongly immunogenic as are mouse p277 and mouse p12”, the “spontaneous T-cell responses” value [11] was “spontaneous responses were detected” and the development of diabetes [2] was “no different than was treatment with IFA alone”. The “mice that made specific IgG1 antibodies” value ([12]; 10 individual mice per group, ELISA) was “only two of the ten”, the “titers of IgG2b antibodies” value ([12]; compared with mouse p12 and mouse p277 groups) was “significantly lower titers” and the “antibody titers of the IgG1 and IgG2b isotypes” value [12] was “did not respond as strongly”.
In the case of “mouse p277: mouse variant of p277, mouse hsp60 437-460; differs from human by 1 amino acid (VLGGGCALLRCIPALDSLKPANED; UniProt P63038 437-460, looked up, fragment)”, the “immunogenicity (T-cell proliferative response)” value [10] is reported as “strong response”, the “spontaneous T-cell responses” value [11] is reported as “spontaneous responses were detected” and the development of diabetes [2] is reported as “effective in inhibiting the development of diabetes”. The “antibody titers of the IgG1 and IgG2b isotypes” value [12] was “effective in inducing strong antibody titers”.
